Entries after “also recorded” stand apart in the source; their conditions may differ. Like-named read-outs stand apart in the source and are kept apart here.
Experiments:
SK-N-AS cells [1] = test: Sensitivity to a second dose of taxol at different times after a first dose (FIG. 1); assay type: cell-based, human
[2] = tested on: SK-N-LO primitive neuroectodermal tumor cells; test: MTT cytotoxicity, SK-N-LO; settings: for cytotoxicity at 0.01 µg/mL / cytotoxicity at 0.1 µg/mL / cytotoxicity at 1 µg/mL: Homo sapiens, 120 h
Excerpt: (§1) Cell lines tested included: Glioblastoma cell lines VA-MG-SL and U-373-MG, neuroblastoma cell lines SK-N-AS, SK-N-FI and VA-N-BR, and two primitive neuroectodermal tumor cell lines SK-N-LO and SK-PN-DW at different concentrations. All cell lines were personally established from patients and cultured except U-373-MG (obtained from the American Type Culture Collection, Rockville, […]., USA). The cell lines SK-N-AS, SK-N-FI, SK-N-LO and SK-PN-DW have been reported in several publications and are believed to be representative of their respective lineages.
(§2) Stock cells in 25 cm^2 flasks were incubated in Dubelco's modified Eagle's medium (Sigma, St. Louis, Mo.) containing 10% fetal bovine serum at 37° C. and 5% CO2 in air for 5 days. Media was renewed on the sixth day and on the seventh day the cells were detached into a single cell suspension with trypsin EDTA, counted and aliquots plated at 3000 to 5000 cells in 0.1 ml fresh media in separate wells of a 96-well microliter plate (Becton-Dickinson Labware, Lincoln Park, N.J.). […] Six replicate wells were used in every experiment as controls and for each test concentration. Each experiment was repeated three separate times. Viability of the cell lines 5 days after exposure to drugs was determined by the MTT assay following published procedures.
(§3) Cytocidal activity was defined when the number of cells or the MTT surrogate optical density value was less than the initial inoculum. This is usually the case when ≥80% toxicity is recorded under these in vitro conditions.
(§4) Differences were considered to be statistically significant for a p-value of 0.05 or less.

[3] = Study B: taxol tissue levels after three IP injections at 4 day intervals; assay type: in vivo, nude mice; settings: seven days after third injection
[4] = cited from earlier work
[5] = tested on: SK-N-AS neuroblastoma tumor in nude mice; test: Studies B and D: antitumor activity, Q4Dx3 vs Q4Hx3; assay type: in vivo
SK-N-AS cells [6] = test: Cytopathologic changes after taxol exposure; assay type: cell-based, human; settings: 1 μg/ml for 1 hour
Excerpt: Apoptosis was recognized as acute change in the cells. These included chromatin clumping at the periphery of the nucleus, loss of cytoplasmic detail and finally apoptotic bodies, either readily detached or floating with several being phagocytosed by surrounding cells.

[7] = tested on: SK-N-AS neuroblastoma cells; test: MTT cytotoxicity, SK-N-AS; settings: for cytotoxicity at 0.01 µg/mL / cytotoxicity at 0.1 µg/mL / cytotoxicity at 1 µg/mL: Homo sapiens, 120 h
Excerpt: as §1, §2, §3, §4

clinical = test: clinical; design: species or system human patients; settings: human, in vivo, iv
Excerpt: (§5) Characteristics of the group of twenty were: male (5); female (15); median age 44 (17-81); ECOG-PS 1 (0-3). All were previously treated with chemotherapy and radiation for cancers of the breast (5), ovarian (2), brain (3), prostate (1), head and neck (4), bone (2), leiomyosarcoma (2), and melanoma (1).

[8] = 40 mg/kg single IP
Excerpt: Five nude mice were maintained in each cage with a fiberglass bonnet in a clean isolation room. All cages and food were sterilized prior to use. Female nude mice were inoculated subcutaneously with 3×10^6 human neuroblastoma (SK-N-AS) tumor cells. Between 8-16 days, tumor growth was evident and measured.
Following sacrifice by cervical dislocation, tumor and normal tissues were immediately removed, sonicated, diluted in buffer (PBS containing 0.25% BSA, 0.05%, Tween 20, Methanol 20%, and Sodium Azide 2%). […] Tissue protein was determined using the BioRad kit (BioRad, 3300 Regatta Boulevard, Richmond, Calif. 94804).

[9] = tested on: recurrent or refractory solid tumors of childhood; test: Study Y: pilot study of children with recurrent or refractory cancer; assay type: in vivo, human (children)
Experimental: A pilot study of children with recurrent or refractory cancer was initiated under our direction. Ten patients with a variety of recurrent or refractory solid tumors of childhood were treated with the same dosage and schedule as the adults described above.

[10] = tested on: ovarian and breast cancers; settings: background statement; cited from earlier work
various cancers = test: Human tumor responses, Q4D schedule; assay type: in vivo, human patients
Experimental: From the results obtained from the in vitro and the animal studies, responses of various human subjects to the Q4d×3 (21 days×3) protocol at dosages levels of about 60 mg/m^2 were evaluated. It should be understood that these patients were deemed "salvage" cases almost all of whom had not responded to conventional treatment. All were otherwise thought to be beyond approved therapeutic regimens. Thus, the results and evaluation are anecdotal in nature and are not part of a controlled and statistical valid clinical trial.
as §5

SK-N-AS cells [11] = test: Effects of spacing exposure to taxol on toxicity in SK-N-AS cells
Experimental: as §2

[12] = Homo sapiens, SK-N-AS, 120 h, read-out: Survival (%)

For `CC(=O)O[C@H]1C(=O)[C@@]2(C)[C@H]([C@H](OC(=O)c3ccccc3)[C@]3(O)C[C@H](OC(=O)[C@H](O)[C@@H](NC(=O)c4ccccc4)c4ccccc4)C(C)=C1C3(C)C)[C@]1(OC(C)=O)CO[C@@H]1C[C@@H]2O` [taxol], the “time to revertant taxol susceptibility” value (SK-N-AS cells [1]; after initial exposure, concluded) was “four”, the “sensitivity to second dose of taxol” value (SK-N-AS cells [1]; second dose 24 to 120 hours after first, two experiments) was “rebounded at the fourth day and continued to the fifth day to the original sensitivity levels” and the cytotoxicity at 0.01 µg/mL ([2]; read-out: Taxol toxicity, SK-N-LO, 0.01 μg/ml x 1 h, 5 days after exposure) was 0%. It also gave a cytotoxicity at 0.01 µg/mL ([2]; read-out: Taxol toxicity, SK-N-LO, 0.01 μg/ml x 4 h, 5 days after exposure) of 0%, a cytotoxicity at 0.01 µg/mL ([2]; read-out: Taxol toxicity, SK-N-LO, 0.01 μg/ml x 24 h, 5 days after exposure, p < 0.05 vs 1 h) of 17% and a cytotoxicity at 0.1 µg/mL ([2]; read-out: Taxol toxicity, SK-N-LO, 0.1 μg/ml x 1 h, 5 days after exposure) of 43%. It also gave a cytotoxicity at 0.1 µg/mL ([2]; read-out: Taxol toxicity, SK-N-LO, 0.1 μg/ml x 4 h, 5 days after exposure) of 56%, a cytotoxicity at 0.1 µg/mL ([2]; read-out: Taxol toxicity, SK-N-LO, 0.1 μg/ml x 24 h, 5 days after exposure) of 47% and a cytotoxicity at 1 µg/mL ([2]; read-out: Taxol toxicity, SK-N-LO, 1.0 μg/ml x 1 h, 5 days after exposure) of 54%. The cytotoxicity at 1 µg/mL ([2]; read-out: Taxol toxicity, SK-N-LO, 1.0 μg/ml x 4 h, 5 days after exposure) was 58%, the cytotoxicity at 1 µg/mL ([2]; read-out: Taxol toxicity, SK-N-LO, 1.0 μg/ml x 24 h, 5 days after exposure) was 57% and the “cytotoxicity compared with a 1 hour exposure” value ([2]; SK-N-LO, 0.01 μg/ml, 24 hour) was “enhanced cytotoxicity”. For the same compound, the toxicity in words ([2]; SK-N-LO, 0.01 μg/ml, 24 hour exposure) was “toxic”, the “taxol in the colon” value [3] was “Substantial amounts” and the “taxol in tumor and organs” value [3] was “detectable in tumor and organs”. For the same compound, the maximum tolerated dose ([4]; Brown et al, six-hour infusion every twenty-one days, no premedication) was 275 mg/m^2, the “incidence of hypersensitivity reactions” value ([4]; Brown et al) was “dependent upon the schedule over which the taxol was administered” and the hypersensitivity reactions ([4]; Kris et al, three hour infusion, 15-200 mg/m^2) was “severity and unpredictability of hypersensitivity reactions”. For the same compound, the “antitumor activity, Q4D×3 vs Q4H×3” value ([5]; 15 mg/kg IP) was “greater antitumor activity than the Q4H×3 schedule”, the “antitumor activity, Q4D vs QD schedule” value ([5]; mouse, in vivo) was “better in the Q4D than in the QD schedule” and the “time of abnormal mitosis and polyploidy” value (SK-N-AS cells [6]) was 36 to 72 h. For the same compound, the time of apoptosis (SK-N-AS cells [6]) was 6 to 24 h, the “cells altered by taxol” value (SK-N-AS cells [6]; at 24, 48 and 72 hours) was “Approximately 30%” and the “cytotoxicity compared with a 1 hour exposure” value ([7]; 0.01 μg/ml, 24 hour) was “enhanced cytotoxicity”. For the same compound, the toxicity in words ([7]; 0.01 μg/ml, ≥1 hour exposure) was “toxic”, the “resilience of cell line to taxol” value ([7]; 0.01-1.0 μg/ml) was “least resilient of the cell lines” and the cytotoxicity at 0.01 µg/mL ([7]; read-out: Taxol toxicity, SK-N-AS, 0.01 μg/ml x 1 h, 5 days after exposure) was 15%. The cytotoxicity at 0.01 µg/mL ([7]; read-out: Taxol toxicity, SK-N-AS, 0.01 μg/ml x 4 h, 5 days after exposure) was 25%, the cytotoxicity at 0.01 µg/mL ([7]; read-out: Taxol toxicity, SK-N-AS, 0.01 μg/ml x 24 h, 5 days after exposure, p < 0.05 vs 1 h) was 50% and the cytotoxicity at 0.1 µg/mL ([7]; read-out: Taxol toxicity, SK-N-AS, 0.1 μg/ml x 1 h, 5 days after exposure) was 65%. The cytotoxicity at 0.1 µg/mL ([7]; read-out: Taxol toxicity, SK-N-AS, 0.1 μg/ml x 4 h, 5 days after exposure) was 67%, the cytotoxicity at 0.1 µg/mL ([7]; read-out: Taxol toxicity, SK-N-AS, 0.1 μg/ml x 24 h, 5 days after exposure, p < 0.05 vs 1 h) was 81% and the cytotoxicity at 1 µg/mL ([7]; read-out: Taxol toxicity, SK-N-AS, 1.0 μg/ml x 1 h, 5 days after exposure) was 87%. It also gave a cytotoxicity at 1 µg/mL ([7]; read-out: Taxol toxicity, SK-N-AS, 1.0 μg/ml x 4 h, 5 days after exposure) of 82%, a cytotoxicity at 1 µg/mL ([7]; read-out: Taxol toxicity, SK-N-AS, 1.0 μg/ml x 24 h, 5 days after exposure) of 89% and a Kp (clinical) of 0.01. The “peripheral blood CMAX” value (clinical) was 1400 ng/mL, the Cmax (clinical; 0-40 ng/ml CMAX (so in the source)) was < 40 ng/mL and the half-life (clinical; T1/2 α) was 15 min. The half-life (clinical; distributive phase T1/2 α) was 7 to 20 min, the Cmax (clinical; peripheral blood CMAX) was 1240 ng/mL and the Tumor size ([8]; day 1) was 378 mm^2. The Tumor size ([8]; day 2) was 480 mm^2, the Tumor size ([8]; day 3) was 208 mm^2 and the Tumor size ([8]; day 4) was 80 mm^2. For the same compound, the Tumor size ([8]; day 5) was 252 mm^2, the Tumor size ([8]; day 6) was 154 mm^2 and the “tumor response on CT scan” value ([9]; one patient, pelvic embryonal rhabdomyosarcoma) was “shrinkage of their tumor”. The “decrease in tumor volume” value ([9]; one patient, recurrent glioblastoma multiforme, after 9 treatments) was 30%, the progression ([9]; rhabdomyosarcoma patient, shortly following the 9th treatment) was “developed a brain metastasis” and the “antitumor activity in words” value [10] was “among the most active single agent for ovarian and breast cancers”. The “antitumor activity in words” value (various cancers; Q4D schedule, advanced disease patients with varied histologies) was “has antitumor activity in advanced disease patients with varied histologies”, the “effectiveness vs Q21 day schedule” value (various cancers; Q4D, previously untreated patients or in combination/sequence, interpretation) was “equal to, or more effective than, the Q21 day schedule” and the partial response (various cancers; all) was “four”. For the same compound, the partial response (various cancers; brain) was 1 instances, the complete response (various cancers; brain tumor) was “one” and the partial response (various cancers; breast) was 2 instances. For the same compound, the partial response (various cancers; head and neck) was 1 instances, the effectiveness in words (various cancers; salvage patients, limited tests) was “demonstrated effectiveness” and the viability at 0.3 µg/mL (SK-N-AS cells [11]; [12]) was 61%. For the same compound, the viability at 0.6 µg/mL (SK-N-AS cells [11]; [12]) was 24%, the “cytotoxic effects of single vs split exposure” value (SK-N-AS cells [11]; single exposure 0.6 μg/ml/h) was “greater than when taxol was scheduled as 0.3 μg/ml given once and once again after 30 minutes” and the “concentration in normal tissues, treated vs controls” value (10 mg/kg IP Q4D×3, then single 20 mg/kg IP) was “consistently greater than in nontreated controls; also recorded: consistently greater than in Group A”. The “concentration in tumor vs liver, kidney or lung” value (after single 20 mg/kg IP) was “usually greater in tumor tissue compared to liver, kidney or lung”, the “distribution in tumor tissue compared to liver, kidney or lung” value (mouse, in vivo) was “four to thirty” and the “Taxol, tumor” value (treated (Cages II, III): 10 mg/kg Q4D×3, then 20 mg/kg IP 24 h prior, individual mice) was 195.24 ng/mg Protein.

From patent US5696153A, “Therapeutic regimen for treating patients” (priority 1996, dated 1997)
